Measurements: patent publication US20220016101A1 (ACADIA Pharmaceuticals Inc., priority 2018, published 2022)
Where two headings read alike, the source gives them in different places.

Key:
[1] = target: alpha1 adrenergic receptor; assay: Receptor profile: affinity (Ki) at α1; format: binding; conditions: other noteworthy target; data on file
[2] = target: alpha2 adrenergic receptor; conditions: read-out: affinity (Ki) α2; other noteworthy target; literature sources; cited from earlier work
[3] = target: T1, 5-HT3 (Homo sapiens, UniProt P46098); conditions: other noteworthy target; literature sources; read-out: affinity (Ki) 5-HT3; cited from earlier work
T1 sequence (P46098 24-478): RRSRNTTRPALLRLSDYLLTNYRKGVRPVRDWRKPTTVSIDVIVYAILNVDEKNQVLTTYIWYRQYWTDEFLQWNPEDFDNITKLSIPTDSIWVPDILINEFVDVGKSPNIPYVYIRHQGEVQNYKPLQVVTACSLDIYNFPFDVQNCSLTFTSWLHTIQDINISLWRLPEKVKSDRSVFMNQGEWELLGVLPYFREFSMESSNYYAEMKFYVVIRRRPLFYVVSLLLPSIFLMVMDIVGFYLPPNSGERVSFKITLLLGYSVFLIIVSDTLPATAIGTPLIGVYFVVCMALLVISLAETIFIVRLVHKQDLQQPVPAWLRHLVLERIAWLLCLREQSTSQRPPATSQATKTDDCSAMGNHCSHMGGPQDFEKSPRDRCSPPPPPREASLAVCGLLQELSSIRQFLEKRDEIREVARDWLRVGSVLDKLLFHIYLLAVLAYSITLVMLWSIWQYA

[4] = target: T2, 5-HT2C (Homo sapiens, UniProt P28335); conditions: literature sources; read-out: affinity (Ki) 5-HT2C; cited from earlier work
T2 sequence (P28335 33-458): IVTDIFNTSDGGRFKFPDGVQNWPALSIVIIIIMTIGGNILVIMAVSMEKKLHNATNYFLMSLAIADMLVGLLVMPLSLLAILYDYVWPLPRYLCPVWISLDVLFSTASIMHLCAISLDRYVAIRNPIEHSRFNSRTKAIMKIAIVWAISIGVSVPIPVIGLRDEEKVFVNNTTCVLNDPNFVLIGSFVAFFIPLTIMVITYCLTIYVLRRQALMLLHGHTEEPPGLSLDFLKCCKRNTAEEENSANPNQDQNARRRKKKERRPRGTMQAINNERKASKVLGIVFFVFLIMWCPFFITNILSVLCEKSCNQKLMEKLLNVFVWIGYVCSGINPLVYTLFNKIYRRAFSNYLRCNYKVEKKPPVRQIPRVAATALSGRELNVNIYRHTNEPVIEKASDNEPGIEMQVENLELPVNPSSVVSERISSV

[5] = target: T3, D4 (Homo sapiens, UniProt P21917); conditions: other noteworthy target; literature sources; read-out: affinity (Ki) D4; cited from earlier work
T3 sequence (P21917 1-419): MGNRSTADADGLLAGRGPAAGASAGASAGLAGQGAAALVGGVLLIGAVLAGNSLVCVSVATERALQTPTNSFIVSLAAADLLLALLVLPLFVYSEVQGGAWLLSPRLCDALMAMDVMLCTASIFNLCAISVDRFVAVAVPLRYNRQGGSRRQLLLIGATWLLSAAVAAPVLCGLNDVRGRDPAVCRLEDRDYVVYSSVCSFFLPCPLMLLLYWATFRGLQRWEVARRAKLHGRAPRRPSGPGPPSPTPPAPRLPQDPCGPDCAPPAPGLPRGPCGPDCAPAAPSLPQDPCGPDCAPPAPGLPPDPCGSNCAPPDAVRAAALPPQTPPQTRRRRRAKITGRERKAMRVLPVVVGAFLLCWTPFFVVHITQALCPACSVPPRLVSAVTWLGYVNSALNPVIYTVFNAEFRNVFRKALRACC

[6] = target: serotonin transporter (Homo sapiens, UniProt P31645); assay: Receptor profile: affinity (Ki) at SERT; format: binding; conditions: data on file
Chain of serotonin transporter (P31645 whole entry): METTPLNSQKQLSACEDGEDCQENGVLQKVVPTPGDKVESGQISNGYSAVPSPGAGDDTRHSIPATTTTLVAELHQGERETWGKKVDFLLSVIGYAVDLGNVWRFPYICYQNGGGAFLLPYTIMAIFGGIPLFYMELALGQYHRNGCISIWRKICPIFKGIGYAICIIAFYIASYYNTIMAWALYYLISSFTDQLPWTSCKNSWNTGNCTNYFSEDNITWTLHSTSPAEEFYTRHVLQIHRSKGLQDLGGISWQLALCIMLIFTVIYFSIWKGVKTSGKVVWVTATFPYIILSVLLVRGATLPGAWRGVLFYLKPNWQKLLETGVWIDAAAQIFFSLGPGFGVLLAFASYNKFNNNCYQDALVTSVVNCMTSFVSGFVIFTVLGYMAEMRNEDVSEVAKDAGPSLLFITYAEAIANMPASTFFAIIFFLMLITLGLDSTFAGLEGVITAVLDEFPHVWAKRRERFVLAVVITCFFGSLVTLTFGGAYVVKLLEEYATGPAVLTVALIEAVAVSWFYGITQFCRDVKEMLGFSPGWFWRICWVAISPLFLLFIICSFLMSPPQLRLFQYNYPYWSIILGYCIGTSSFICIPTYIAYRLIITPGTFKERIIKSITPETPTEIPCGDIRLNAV

[7] = target: norepinephrine transporter (Homo sapiens, UniProt P23975); assay: Receptor profile: affinity (Ki) at NET; format: binding; conditions: data on file
Chain of norepinephrine transporter (P23975 whole entry, species assumed): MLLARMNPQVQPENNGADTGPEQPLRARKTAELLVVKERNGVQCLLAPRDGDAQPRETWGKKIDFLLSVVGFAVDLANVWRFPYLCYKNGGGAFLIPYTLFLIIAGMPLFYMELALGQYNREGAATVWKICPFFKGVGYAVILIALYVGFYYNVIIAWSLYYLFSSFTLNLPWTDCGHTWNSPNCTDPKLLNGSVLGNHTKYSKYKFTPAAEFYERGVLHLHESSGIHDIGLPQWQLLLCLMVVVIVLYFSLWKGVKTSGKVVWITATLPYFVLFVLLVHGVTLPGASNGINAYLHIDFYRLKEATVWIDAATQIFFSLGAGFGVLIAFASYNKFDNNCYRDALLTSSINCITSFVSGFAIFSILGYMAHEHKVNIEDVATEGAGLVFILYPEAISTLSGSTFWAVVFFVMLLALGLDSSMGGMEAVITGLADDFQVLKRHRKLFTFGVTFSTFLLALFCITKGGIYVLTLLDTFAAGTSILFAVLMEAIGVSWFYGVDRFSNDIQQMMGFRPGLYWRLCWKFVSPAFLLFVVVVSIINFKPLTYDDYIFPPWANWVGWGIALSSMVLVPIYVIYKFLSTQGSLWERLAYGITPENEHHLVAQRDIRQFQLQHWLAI

[8] = target: 5-HT2A (Homo sapiens, UniProt P28223); assay: Receptor profile: affinity (Ki) at 5-HT2A; format: binding; conditions: data on file
Chain of 5-HT2A (P28223 whole entry, species assumed): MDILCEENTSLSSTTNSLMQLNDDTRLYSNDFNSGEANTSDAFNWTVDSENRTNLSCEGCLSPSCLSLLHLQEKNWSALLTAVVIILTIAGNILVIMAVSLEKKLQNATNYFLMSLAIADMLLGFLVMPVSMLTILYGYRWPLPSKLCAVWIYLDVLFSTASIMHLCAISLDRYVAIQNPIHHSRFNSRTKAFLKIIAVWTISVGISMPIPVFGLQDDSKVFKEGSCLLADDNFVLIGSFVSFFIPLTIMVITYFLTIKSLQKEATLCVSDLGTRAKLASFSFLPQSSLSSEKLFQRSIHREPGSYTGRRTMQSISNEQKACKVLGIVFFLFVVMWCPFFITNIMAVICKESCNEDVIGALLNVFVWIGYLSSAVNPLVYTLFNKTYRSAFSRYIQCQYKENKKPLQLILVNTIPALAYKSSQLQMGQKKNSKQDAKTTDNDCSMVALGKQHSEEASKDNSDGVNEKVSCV

[9] = target: dopamine transporter (Homo sapiens, UniProt Q01959); assay: Receptor profile: affinity (Ki) at DAT; format: binding; conditions: data on file
Chain of dopamine transporter (Q01959 whole entry): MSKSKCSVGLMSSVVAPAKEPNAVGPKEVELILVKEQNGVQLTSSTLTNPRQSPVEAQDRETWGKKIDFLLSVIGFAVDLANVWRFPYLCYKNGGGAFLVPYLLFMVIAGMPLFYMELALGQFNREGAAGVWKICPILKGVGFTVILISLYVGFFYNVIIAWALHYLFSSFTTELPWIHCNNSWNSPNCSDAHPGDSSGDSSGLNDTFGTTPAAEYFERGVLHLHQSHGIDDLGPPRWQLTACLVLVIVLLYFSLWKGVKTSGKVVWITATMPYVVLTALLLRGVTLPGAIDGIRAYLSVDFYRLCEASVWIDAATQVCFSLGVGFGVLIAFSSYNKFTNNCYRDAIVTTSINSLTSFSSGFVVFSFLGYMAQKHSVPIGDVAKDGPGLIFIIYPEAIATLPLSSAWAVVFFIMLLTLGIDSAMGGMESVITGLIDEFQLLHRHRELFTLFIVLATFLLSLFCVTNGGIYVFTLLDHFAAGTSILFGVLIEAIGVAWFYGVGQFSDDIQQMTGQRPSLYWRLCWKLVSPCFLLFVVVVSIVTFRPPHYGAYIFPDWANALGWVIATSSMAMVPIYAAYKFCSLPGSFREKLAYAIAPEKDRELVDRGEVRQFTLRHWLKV

[10] = target: T2, 5-HT2C; assay: Receptor profile: affinity (Ki) at 5-HT2C; format: binding; conditions: data on file
[11] = test system: patients with MDD; conditions: Baldwin et al (2013); printed as x to 1; cited from earlier work

SMILES | Ki [2] | Ki [4] | Ki [6] | Ki [7] | Ki [9] | Ki [10] | other results
O=C(c1ccc(F)cc1)C1CCN(CCn2c(=O)[nH]c3ccccc3c2=O)CC1 [KET, ketanserin] | – | – | – | – | – | – | Ki [1]: 15 to 20 nM
CN1CCN2c3ncccc3Cc3ccccc3C2C1 (centres unmarked) [MIRT, mirtazapine] | 15 to 20 nM | 40 nM | – | – | – | – | Ki [3]: 10 nM
NC(=O)C1(N2CCCCC2)CCN(CCCC(=O)c2ccc(F)cc2)CC1 [PIP, pipamperone] | 35 nM | 120 nM | – | – | – | – | Ki [5]: 5 nM
N#Cc1c[nH]c2c(C(=O)N3CCN(CCc4ccc(F)cc4)CC3)cccc12 [PRUV, pruvanserin] | – | – | > 1000 nM | > 1000 nM | > 1000 nM | > 1000 nM | Ki [8]: 0.7 nM
Cc1nc2sccn2c(=O)c1CCN1CCC(=C(c2ccc(F)cc2)c2ccc(F)cc2)CC1 [RIT, ritanserin] | – | – | > 1000 nM | > 1000 nM | > 1000 nM | 3 nM | –
COc1ccc(C(CN(C)C)C2(O)CCCCC2)cc1 (centres unmarked) [venlafaxine] | – | – | – | – | – | – | odds ratio (drug to placebo) for sexual dysfunction [11]: 24.42
